Experimental data as given in patent US20110129455A1, “INHIBITORS OF AKT ACTIVITY” (priority 2008, published 2011).

Target: T1, full length AKT1 (Homo sapiens, UniProt P31749)
T1 construct: Full-length human AKT1 gene was amplified by PCR; His tag (from vector pFastBacHTb; N-terminal position is own knowledge of the vector) (N); made in house; host or cells: baculovirus; Sf9 / T. ni insect cells
Experiment: Full-length AKT enzyme assay (substrate phosphorylation, SPA)
Assay type: biochemical
Conditions: in at least one experimental run; pIC50 = -log(IC50), IC50 in molar units; 4 uM ATP, 10 nM activated AKT enzyme; read-out: pIC50 against full length AKT1 (converted)
Text: Cloning of Full-Length Human (FL) AKT1:
Full-length human AKT1 gene was amplified by PCR from a plasmid containing myristylated-AKT1-ER (gift from Robert T. Abraham, Duke University under MTA, described in Klippel et al. in Molecular and Cellular Biology 1998 Volume 18 p. 5699) using the 5′ primer: SEQ. ID NO: 2
5′ […] 3′ and the 3′ primer: SEQ. ID NO: 3 […] 3′. The 5′ primer included a BamHl site and the 3′primer included an Xhol site for cloning purposes. The resultant PCR product was subcloned in pcDNA3 as a BamHl/Xhol fragment. A mutation in the sequence (TGC) coding for a Cysteine^25 was converted to the wild-type AKT1 sequence (CGC) coding for an Arginine^25 by site-directed mutagenesis using the QuikChange® Site Directed Mutagenesis Kit (Stratagene). The AKT1 mutagenic primer: SEQ. ID NO: 4 5′ […] and selection primer: SEQ. […] For expression/purification purposes, AKT1 was isolated as a BamHl/Xhol fragment and cloned into the BamHl/Xhol sites of pFastbacHTb (Invitrogen).
Expression was done using the BAC-to-BAC Baculovirus Expression System from Invitrogen (catalog #10359-016). […]
Compounds of the present invention were tested for AKT 1, 2, and 3 protein serine kinase inhibitory activity in substrate phosphorylation assays. […] Substrate phosphorylation was detected by the following procedure. […]

T1 sequence (P31749 whole entry): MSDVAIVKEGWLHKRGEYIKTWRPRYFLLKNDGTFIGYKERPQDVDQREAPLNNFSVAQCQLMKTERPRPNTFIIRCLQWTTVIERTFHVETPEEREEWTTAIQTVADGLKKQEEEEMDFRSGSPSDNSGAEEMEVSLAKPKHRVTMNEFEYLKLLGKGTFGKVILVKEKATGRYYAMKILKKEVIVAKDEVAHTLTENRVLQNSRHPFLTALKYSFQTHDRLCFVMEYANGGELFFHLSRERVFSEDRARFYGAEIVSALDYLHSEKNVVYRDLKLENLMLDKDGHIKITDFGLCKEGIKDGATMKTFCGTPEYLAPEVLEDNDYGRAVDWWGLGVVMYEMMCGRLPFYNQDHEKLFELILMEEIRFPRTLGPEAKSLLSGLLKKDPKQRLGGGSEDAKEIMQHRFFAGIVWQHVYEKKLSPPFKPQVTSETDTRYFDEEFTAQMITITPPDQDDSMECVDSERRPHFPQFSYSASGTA

In the case of `Cn1nccc1-n1cc(C(=O)N[C@H](CN)Cc2cccc(F)c2)cc1Cl` [Example 2, N-{(1S)-2-amino-1-[(3-fluorophenyl)methyl]ethyl}-5-chloro-1-(1-methyl-1H-pyrazol-5-yl)-1H-pyrrole-3-carboxamide], the IC50 is reported as 6.31 nM.
